Experimental data reported in patent publication US20110294138A1, “METHODS FOR SIMULTANEOUSLY MEASURING THE IN VIVO METABOLISM OF TWO OR MORE ISOFORMS OF A BIOMOLECULE” (THE WASHINGTON UNIVERSITY, priority 2008, published 2011).

Test system: immortalized knock-in murine astrocytes expressing human ApoE4
Assay: Production (stable isotope labeling kinetics, SILT) of human ApoE4 in immortalized knock-in murine astrocytes
Format: cell-based
Conditions: 50% 13C6-leucine in media, media collected over 48 hours, n=3; calculated from initial slope and plateau TTR
Protocol: FIG. 5 presents the production of human ApoE4 in immortalized knock-in murine astrocytes. ApoE4 expressing astrocytes were grown to confluency. ^13C6-Leucine was added to the media at time t=0 bringing the total percent ^13C6-leucine to 50%. Media was collected over 48 hours. ApoE was captured using liposorb, reduced and alkylated, and digested with trypsin. ApoE4 specific peptides were analyzed by nano-LC MS/MS. The SILT method was used to determine the incorporation of ^13C6-leucine into ApoE (n=3, error bars SEM). The fractional synthetic rate (FSR) of ApoE4 was calculated using initial slope and plateau tracer to tracee ratio (TTR) of 8.5% per hour. […]
ApoE was isolated either by overnight incubation with anti-ApoE antibody (WUE4) coupled to CNBr-activated Sepharose beads, or incubation for 30 min (4° C.) with PHM-Liposorb™ (Calbiochem, San Diego, Calif.). […] After desalting using Nu-tip carbon tips (Glygen Corp., Columbia, Md.), the supernatant containing ApoE peptides was analyzed by nano-LC tandem MS (Thermo-Finnigan LTQ equipped with a New Objective nanoflow ESI source) as previously described (Bateman et al., 2006, Nature Medicine, 12:856-861). The samples were quantitated using the stable-isotope tandem labeled (SILT) mass spectroscopy method as described by Bateman et al. 2007 J Am Soc Mass Spectrum 18(6):[…]. […]

## ApoE4: Human apolipoprotein E isoform ApoE4 (arg112, arg158), endogenous protein whose metabolism is measured
  fractional synthetic rate (FSR) of ApoE4: 8.5 % per hour
